From PMC6748986, “Potent modulation of the CepR quorum sensing receptor and virulence in a Burkholderia cepacia complex member using non-native lactone ligands” (Scientific Reports, 2019)
Like-named read-outs stand apart in the source and are kept apart here.

Experiments:
[1] = molecular target: T1, CepR (Burkholderia multivorans, UniProt Q93PF7); test: CepR antagonism in B. multivorans cepI::lacZ reporter (Bm-reporter), competition against C8-AHL; type: cell-based
T1 sequence (Q93PF7 1-239): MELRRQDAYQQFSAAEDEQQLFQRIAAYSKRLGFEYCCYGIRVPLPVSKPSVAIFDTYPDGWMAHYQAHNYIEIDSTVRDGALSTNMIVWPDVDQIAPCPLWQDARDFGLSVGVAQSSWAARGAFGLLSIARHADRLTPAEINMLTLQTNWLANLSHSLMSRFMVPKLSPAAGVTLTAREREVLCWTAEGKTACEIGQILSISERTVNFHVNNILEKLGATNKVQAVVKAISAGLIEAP
From the text: We next sought to assess if the CepR modulators identified in the Ec-reporter maintained their activities in a member of the Bcc. For these studies, we generated a B. multivorans cepI::lacZ reporter organism (Bm-reporter) using standard allelic exchange methods (see Methods). Along with B. cenocepacia, B. multivorans is one of the most commonly isolated Bcc members[6],[44]. We note that small molecules must contend with a different cellular environment in the native organism relative to E. coli[48]; however, as both CepR and the cepI promoter are highly conserved among Bcc species (Fig. S3), we reasoned that the majority of compounds identified in the Ec-reporter (containing B. cenocepacia versions of the cepI promoter and the cepR gene) would maintain their relative activity profiles in CepR in B. multivorans. […] Similar to the Ec-reporter, CepR binding to the cepI promoter then induces β-galactosidase production, allowing for the quantitation of CepR activity. Using the Bm-reporter organism, we observed robust activity for CepR in response to C8-AHL (EC50 = 0.7 nM, Table 3).
The B. multivorans cepI::lacZ strain was used to obtain dose-response data for CepR in response to synthetic AHLs. Overnight cultures of B. multivorans cepI::lacZ were grown in LB medium at 37 °C with shaking (225 rpm). Aliquots (200 μL) of a 1:10 dilution of this overnight culture were plated into 96-well plates containing varying concentrations of compound, and then grown for 4 h at 37 °C with shaking (225 rpm). β-galactosidase production was measured as described above for E. coli, with the following changes: permeabilized cells were incubated at 25 °C with substrate CPRG for ~10 min until positive control wells developed a deep red color. For agonism assays, synthetic compound was screened alongside and compared to the native ligand, C8-AHL (100 μM). For antagonism assays, the concentration of native ligand utilized was 5 nM (approximately equal to twice its EC50 value).

[2] = test system: B. multivorans ATCC17616; test: Swarming motility assay (0.5% agar); type: cell-based; settings: 50 μM C8-AHL
From the text: We were interested to assess the effects of our lead CepR modulators on a phenotype under the control of QS in B. multivorans. However, very little work has been reported to directly link CepR activity in B. multivorans to any QS-controlled phenotype. […] Therefore, we chose to study the effects of compound treatment on both the swarming and swimming motility of B. multivorans (B. multivorans ATCC17616; see Methods).
We then tested the ability of our non-native compounds to modulate swimming motility in B. multivorans.
Figure S4. Motility assays (A ) on 0.3% agar (i.e., to measure swimming) with th e B. multivorans parental and cepI::lacZ organisms, using +/- 50 μM C8-AHL and (B) on 0. 5 % ag a r (i.e . , t o measure swarming ) with the B. multivorans parental organism, using +/- 50 μ M C8-AHL. Se e main text for assay methods.
(1 picture or pasted object on this page, not shown here)

[3] = Bm-reporter, against 5 nM C8-AHL

Compound | IC50 [1] | Maximal Inhibition (%) [1, 3] | Swarming motility upon addition of compound [2] | CepR antagonism in words ([1]; Bm-reporter) | IC50 ([1]; Bm-reporter, against 5 nM C8-AHL, read-out: IC50)
CCCCCCCS(=O)(=O)N[C@H]1CCOC1=O [Compound A12] | 1700 nM | 82% |  |  | 
O=C(CC1CCCC1)N[C@H]1CCOC1=O [Compound B12] | 2100 nM | 83% |  |  | 
CCCCCCCC(=O)N[C@H]1CCOC1=O [Compound C8-AHL, N-octanoyl L-homoserine lactone, reference compound] |  |  | not increased |  | 
O=C(Cc1cccc(Br)c1)N[C@H]1CCOC1=O [Compound C8] |  | 94% |  | bring reporter activity down to nearly zero | 2600 nM
O=C(Cc1cccc(C(F)(F)F)c1)N[C@H]1CCOC1=O [Compound E3] | 1900 nM | 100% |  | bring reporter activity down to nearly zero | 
